Where “and” joins values, the source holds several entries; their conditions need not be identical. Equal entries are not always repeated. Inconclusive results and toxic doses are left out. Rule for the calls: active = survival T/C of 150% or more; inactive = T/C below 125% in these data.
Tested on: CD2F1 mice, L1210 leukemia ip, survival T/C
Experiment: NCI In Vivo Anticancer Drug Screen. Data for tumor model L1210 Leukemia (intraperitoneal) in CD2F1 (CDF1) mice
Conditions: higher = longer survival
Method in brief: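 Read-out first: treated-group measurement over vehicle-control measurement, expressed as a ratio. Animals bore a transplanted tumor line and were dosed with compound or vehicle.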

[1] = endpoint: mean survival time, dose: 100.0 mg/kg/injection, schedule: Q04DX003 (ip), vehicle: saline
[2] = endpoint: mean survival time, dose: 200.0 mg/kg/injection, schedule: Q04DX003 (ip), vehicle: saline
[3] = endpoint: mean survival time, dose: 400.0 mg/kg/injection, schedule: Q04DX003 (ip), vehicle: saline
[4] = endpoint: mean survival time, dose: 100.0 mg/kg/injection, schedule: Q04DX003 (ip), vehicle: saline with Tween-80
[5] = endpoint: mean survival time, dose: 200.0 mg/kg/injection, schedule: Q04DX003 (ip), vehicle: saline with Tween-80
[6] = endpoint: mean survival time, dose: 400.0 mg/kg/injection, schedule: Q04DX003 (ip), vehicle: saline with Tween-80
[7] = endpoint: mean survival time, dose: 50.0 mg/kg/injection, schedule: Q01DX009 (ip), vehicle: saline
[8] = endpoint: mean survival time, dose: 100.0 mg/kg/injection, schedule: Q01DX009 (ip), vehicle: saline
[9] = endpoint: mean survival time, dose: 25.0 mg/kg/injection, schedule: Q04DX003 (ip), vehicle: saline with Tween-80
[10] = endpoint: mean survival time, dose: 50.0 mg/kg/injection, schedule: Q04DX003 (ip), vehicle: saline with Tween-80
[11] = endpoint: mean survival time, dose: 100.0 mg/kg/injection, schedule: Q01DX001 (ip), vehicle: saline with Tween-80
[12] = endpoint: mean survival time, dose: 37.5 mg/kg/injection, schedule: Q01DX009 (ip), vehicle: saline
[13] = endpoint: mean survival time, dose: 50.0 mg/kg/injection, schedule: Q01DX009 (ip), vehicle: saline with Tween-80
[14] = endpoint: mean survival time, dose: 100.0 mg/kg/injection, schedule: Q01DX009 (ip), vehicle: saline with Tween-80
[15] = endpoint: mean survival time, dose: 25.0 mg/kg/injection, schedule: Q01DX001 (ip), vehicle: saline with Tween-80
[16] = endpoint: mean survival time, dose: 50.0 mg/kg/injection, schedule: Q01DX001 (ip), vehicle: saline with Tween-80
[17] = endpoint: mean survival time, dose: 25.0 mg/kg/injection, schedule: Q01DX009 (ip), vehicle: saline
[18] = endpoint: mean survival time, dose: 200.0 mg/kg/injection, schedule: Q01DX009 (ip), vehicle: saline
[19] = endpoint: mean survival time, dose: 100.0 mg/kg/injection, schedule: Q04DX002 (ip), vehicle: saline with Tween-80
[20] = endpoint: mean survival time, dose: 200.0 mg/kg/injection, schedule: Q04DX002 (ip), vehicle: saline with Tween-80
[21] = endpoint: mean survival time, dose: 400.0 mg/kg/injection, schedule: Q04DX002 (ip), vehicle: saline with Tween-80
[22] = endpoint: mean survival time, dose: 25.0 mg/kg/injection, schedule: Q01DX009 (ip), vehicle: saline with Tween-80

Measured: T/C

COc1ccc(C(O)c2ncccc2C)cc1OC (configuration not stated)
inactive: endpoint: mean survival time, dose: 12.5 mg/kg/injection, schedule: Q01DX009 (ip), vehicle: water 100 % of control | endpoint: mean survival time, dose: 25.0 mg/kg/injection, schedule: Q01DX009 (ip), vehicle: water 98 % of control | endpoint: mean survival time, dose: 50.0 mg/kg/injection, schedule: Q01DX009 (ip), vehicle: water 104 % of control | endpoint: mean survival time, dose: 100.0 mg/kg/injection, schedule: Q01DX009 (ip), vehicle: water 100 % of control | endpoint: mean survival time, dose: 200.0 mg/kg/injection, schedule: Q01DX009 (ip), vehicle: water 95 % of control

CC(C)NC(=O)CCCCn1c(=O)c2ccccc2c(=O)n1C
inactive: endpoint: mean survival time, dose: 25.0 mg/kg/injection, schedule: Q04DX003 (ip), vehicle: saline 96 % of control | endpoint: mean survival time, dose: 50.0 mg/kg/injection, schedule: Q04DX003 (ip), vehicle: saline 96 % of control | [1] 98 % of control | [2] 113 % of control | [3] 104 % of control

CNC(=S)Nc1ncn[nH]1
inactive: endpoint: mean survival time, dose: 12.5 mg/kg/injection, schedule: Q01DX001 (ip), vehicle: carboxymethylcellulose (CMC) 95 % of control | endpoint: mean survival time, dose: 25.0 mg/kg/injection, schedule: Q01DX001 (ip), vehicle: carboxymethylcellulose (CMC) 93 % of control | endpoint: mean survival time, dose: 50.0 mg/kg/injection, schedule: Q01DX001 (ip), vehicle: carboxymethylcellulose (CMC) 93 % of control | endpoint: mean survival time, dose: 100.0 mg/kg/injection, schedule: Q01DX001 (ip), vehicle: carboxymethylcellulose (CMC) 91 % of control | endpoint: mean survival time, dose: 200.0 mg/kg/injection, schedule: Q01DX001 (ip), vehicle: carboxymethylcellulose (CMC) 91 % of control

COc1ccc(Br)cc1C1OC(=O)c2c(OC)c(OC)cc(N)c21 (configuration not stated)
inactive: [4] 98 % of control | [5] 92 % of control | [6] 88 % of control

Cc1cc(Cc2c(C)c(C)c(Cc3cc(C)cc(C(C)(C)C)c3O)c(C)c2C)c(O)c(C(C)(C)C)c1
inactive: endpoint: mean survival time, dose: 100.0 mg/kg/injection, schedule: Q04DX003 (ip), vehicle: saline sonified 90 % of control | endpoint: mean survival time, dose: 200.0 mg/kg/injection, schedule: Q04DX003 (ip), vehicle: saline sonified 88 % of control | endpoint: mean survival time, dose: 400.0 mg/kg/injection, schedule: Q04DX003 (ip), vehicle: saline sonified 93 % of control

COc1cc(-c2ccc(-[n+]3nc(Cc4ccc5c(c4)OCO5)nn3-c3ccccc3)c(OC)c2)ccc1-[n+]1nc(Cc2ccc3c(c2)OCO3)nn1-c1ccccc1
inactive: [4] 98 % of control | [5] 97 % of control

COC(=O)C1(C)CCCC2(C)C1CCC13OCC(CC21)C(O)(C(C)C)C3O (configuration not stated)
inactive: [4] 95 % of control | [5] 97 % of control | [6] 103 % of control

Oc1ccccc1N=Cc1ccccc1
inactive: [1] 102 % of control | [2] 100 % of control | [3] 101 % of control

O=C(O)c1cc2ccccc2cn1
inactive: [7] 108 % of control | [8] 95 % of control

Cc1sc2ncnc(Cl)c2c1C
inactive: [9] 103 % of control | [10] 114 % of control | [11] 97 % of control | [4] 94 % of control

CCCCCCCC[n+]1ccc(C#N)cc1
inactive: endpoint: mean survival time, dose: 18.8 mg/kg/injection, schedule: Q01DX009 (ip), vehicle: saline 98 % of control | [12] 93 % of control

CC(C)(C)c1cc(/C=N/NC(=O)CNC(=O)NCc2ccco2)cc(C(C)(C)C)c1O
inactive: [13] 93 % of control | [14] 101 % of control | endpoint: mean survival time, dose: 200.0 mg/kg/injection, schedule: Q01DX009 (ip), vehicle: saline with Tween-80 104 % of control

CCOC(=O)c1c(C)cc(C)[nH]c1=O
inactive: endpoint: mean survival time, dose: 100.0 mg/kg/injection, schedule: Q04DX003 (ip), vehicle: saline + alcohol 102 % of control | endpoint: mean survival time, dose: 200.0 mg/kg/injection, schedule: Q04DX003 (ip), vehicle: saline + alcohol 107 % of control | endpoint: mean survival time, dose: 400.0 mg/kg/injection, schedule: Q04DX003 (ip), vehicle: saline + alcohol 113 % of control

NCC(=O)Nc1ccc(Cl)cc1C(=O)c1ccc[nH]1
inactive: endpoint: mean survival time, dose: 100.0 mg/kg/injection, schedule: Q01DX001 (ip), vehicle: saline 89 % of control | [1] 94 % of control | endpoint: mean survival time, dose: 200.0 mg/kg/injection, schedule: Q01DX001 (ip), vehicle: saline 89 % of control | [2] 94 % of control | endpoint: mean survival time, dose: 400.0 mg/kg/injection, schedule: Q01DX001 (ip), vehicle: saline 92 % of control | [3] 96 % of control

[CH-]=C([CH2-])C.[Ni][Br].c1ccc([PH+](c2ccccc2)c2ccccc2)cc1
inactive: [15] 101 % of control | [16] 101 % of control | [11] 108 % of control

N=C(N)c1ccc(OCCOc2cccc(N)c2)cc1
inactive: [17] 100 % of control | [7] 95 % of control | [14] 93 % of control | [8] 97 % of control

O=C(NCCc1c[nH]c2ccccc12)c1cccnc1
inactive: endpoint: mean survival time, dose: 100.0 mg/kg/injection, schedule: Q04DX003 (ip), vehicle: acetone 98 % of control | endpoint: mean survival time, dose: 200.0 mg/kg/injection, schedule: Q04DX003 (ip), vehicle: acetone 96 % of control | endpoint: mean survival time, dose: 400.0 mg/kg/injection, schedule: Q04DX003 (ip), vehicle: acetone 98 % of control

CN(C)c1ccc2c(SCC(=O)OCC(=O)[C@@]3(O)CC[C@H]4[C@@H]5CCC6=CC(=O)C=C[C@]6(C)[C@H]5C(=O)C[C@@]43C)c3ccc(N(C)C)cc3nc2c1
inactive: endpoint: median survival time, dose: 25.0 mg/kg/injection, schedule: Q01DX009 (ip), vehicle: Klucel (hydroxypropylcellulose) (HPC) 117 % of control and 105 % of control | endpoint: median survival time, dose: 50.0 mg/kg/injection, schedule: Q01DX009 (ip), vehicle: Klucel (hydroxypropylcellulose) (HPC) 114 % of control and 116 % of control and 108 % of control | endpoint: median survival time, dose: 100.0 mg/kg/injection, schedule: Q01DX009 (ip), vehicle: Klucel (hydroxypropylcellulose) (HPC) 116 % of control and 118 % of control and 123 % of control | endpoint: median survival time, dose: 200.0 mg/kg/injection, schedule: Q01DX009 (ip), vehicle: Klucel (hydroxypropylcellulose) (HPC) 108 % of control | endpoint: median survival time, dose: 400.0 mg/kg/injection, schedule: Q01DX009 (ip), vehicle: Klucel (hydroxypropylcellulose) (HPC) 123 % of control

CCOC(=O)CCC(NC(=O)C(CSC(c1ccccc1)(c1ccccc1)c1ccccc1)NC(c1ccccc1)(c1ccccc1)c1ccccc1)C(=O)OCC (configuration not stated)
inactive: [17] 93 % of control | [7] 100 % of control | [8] 96 % of control | [18] 96 % of control | endpoint: mean survival time, dose: 400.0 mg/kg/injection, schedule: Q01DX009 (ip), vehicle: saline 96 % of control

CC(CCC1OC2CC3C4CCC5CC(OC(=O)c6ccccc6)CCC5(C)C4CCC3(C)C2C1C)COC(=O)c1ccccc1 (configuration not stated)
inactive: [19] 90 % of control | [20] 94 % of control | [21] 86 % of control

CC1(C)OCC(C(O)C(O)C(O)CO)O1 (configuration not stated)
inactive: [7] 102 % of control | [8] 98 % of control | [18] 102 % of control

Cc1nc(N)[nH]c(=O)c1NC(=O)c1ccc(N=[N+]=[N-])cc1
inactive: endpoint: mean survival time, dose: 12.5 mg/kg/injection, schedule: Q01DX001 (ip), vehicle: saline with Tween-80 90 % of control | endpoint: mean survival time, dose: 12.5 mg/kg/injection, schedule: Q01DX009 (ip), vehicle: saline with Tween-80 89 % of control | endpoint: mean survival time, dose: 12.5 mg/kg/injection, schedule: Q04DX003 (ip), vehicle: saline with Tween-80 97 % of control | [15] 95 % of control | [22] 94 % of control | [9] 97 % of control | [16] 94 % of control | [13] 91 % of control | [10] 96 % of control

SCc1c(Cl)c(Cl)c(Cl)c(Cl)c1Cl
inactive: [19] 94 % of control | [20] 87 % of control | [21] 97 % of control

O=C(O)c1ccc([N+](=O)[O-])cc1P(=O)(O)O
inactive: endpoint: mean survival time, dose: 18.75 mg/kg/injection, schedule: Q01DX009 (ip), vehicle: saline 98 % of control | [12] 98 % of control | endpoint: mean survival time, dose: 75.0 mg/kg/injection, schedule: Q01DX009 (ip), vehicle: saline 95 % of control

CN(C)c1ccc(N=Nc2cccc(Cl)c2Cl)cc1
inactive: [22] 102 % of control | [13] 97 % of control | [14] 105 % of control | [4] 95 % of control | [5] 98 % of control | [6] 104 % of control

COc1ccc(CCNC(=O)Cc2ccccc2)cc1OC
inactive: [4] 103 % of control | [5] 94 % of control | [6] 91 % of control

Nc1cccc2c(S(=O)(=O)O)cccc12
inactive: [1] 100 % of control | [2] 100 % of control | [3] 97 % of control

Reference: PubChem BioAssay AID256 (DTP/NCI, 2004)
